Results taken from PubChem BioAssay (NCI).
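In this assay, cells in 96-well plates receive the compound at five concentrations for 48 hours. Endpoints are linearly interpolated between the surrounding concentrations. GI50 marks 50% less growth. TGI is the concentration that stops growth completely.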

Columns and labels:
Test in all cases: DTP human tumour cell line panel, 48 h
ACHN renal = system: ACHN renal
MCF7 breast = system: MCF7 breast
NCI-H226 lung = system: NCI-H226 lung
HOP-62 NSCLC = system: HOP-62 NSCLC
A549 NSCLC = system: A549 NSCLC
SK-MEL-5 melanoma = system: SK-MEL-5 melanoma
SK-MEL-2 melanoma = system: SK-MEL-2 melanoma
U251 CNS = system: U251 CNS
HCT-15 colon = system: HCT-15 colon
SN12C renal = system: SN12C renal
PC-3 prostate = system: PC-3 prostate
LOX IMVI melanoma = system: LOX IMVI melanoma
UACC-257 melanoma = system: UACC-257 melanoma
OVCAR-3 ovarian = system: OVCAR-3 ovarian
SW-620 colon = system: SW-620 colon
SF-539 CNS = system: SF-539 CNS
OVCAR-4 ovarian = system: OVCAR-4 ovarian
RPMI-8226 leukemia = system: RPMI-8226 leukemia
786-0 renal = system: 786-0 renal
MALME-3M melanoma = system: MALME-3M melanoma
NCI-H23 lung = system: NCI-H23 lung
A498 renal = system: A498 renal
UO-31 renal = system: UO-31 renal
SNB-75 CNS = system: SNB-75 CNS
NCI/ADR-RES ovarian = system: NCI/ADR-RES ovarian
M14 melanoma = system: M14 melanoma
SF-268 CNS = system: SF-268 CNS
OVCAR-8 ovarian = system: OVCAR-8 ovarian
SK-MEL-28 melanoma = system: SK-MEL-28 melanoma
HL-60(TB) leukemia = system: HL-60(TB) leukemia
MOLT-4 leukemia = system: MOLT-4 leukemia
HS 578T breast = system: HS 578T breast
IGROV1 ovarian = system: IGROV1 ovarian
CAKI-1 renal = system: CAKI-1 renal
MDA-MB-435 = system: MDA-MB-435
NCI-H460 lung = system: NCI-H460 lung
HCT-116 colon = system: HCT-116 colon
SF-295 CNS = system: SF-295 CNS
DU-145 prostate = system: DU-145 prostate
NCI-H522 lung = system: NCI-H522 lung
CCRF-CEM leukemia = system: CCRF-CEM leukemia
BT-549 breast = system: BT-549 breast
HT29 colon = system: HT29 colon
COLO 205 colon = system: COLO 205 colon
SNB-19 CNS = system: SNB-19 CNS
MDA-MB-231 breast = system: MDA-MB-231 breast
SK-OV-3 ovarian = system: SK-OV-3 ovarian
T-47D breast = system: T-47D breast
OVCAR-5 ovarian = system: OVCAR-5 ovarian
RXF 393 renal = system: RXF 393 renal
K-562 leukemia = system: K-562 leukemia
KM12 colon = system: KM12 colon
SR leukemia = system: SR leukemia
HCC-2998 colon = system: HCC-2998 colon
UACC-62 melanoma = system: UACC-62 melanoma

Cc1nn(-c2ccccc2)c2c1C1C(=C(c3ccc(Cl)cc3)N2)C(=O)Nc2ccccc21 (stereo not given)
GI50 (ACHN renal): 3.51 µM
TGI (ACHN renal): > 100 µM
GI50 (MCF7 breast): 3.16 µM
TGI (MCF7 breast): > 100 µM
GI50 (NCI-H226 lung): 7.34 µM
TGI (NCI-H226 lung): 36 µM
GI50 (HOP-62 NSCLC): 9.88 µM
TGI (HOP-62 NSCLC): > 100 µM
GI50 (A549 NSCLC): 3.12 µM
TGI (A549 NSCLC): > 100 µM
GI50 (SK-MEL-5 melanoma): 1.88 µM
TGI (SK-MEL-5 melanoma): 4.31 µM
GI50 (SK-MEL-2 melanoma): 1.87 µM
TGI (SK-MEL-2 melanoma): 4.29 µM
GI50 (U251 CNS): 2.98 µM
TGI (U251 CNS): 12.3 µM
GI50 (HCT-15 colon): 3 µM
TGI (HCT-15 colon): 18.6 µM
GI50 (SN12C renal): 4.96 µM
TGI (SN12C renal): 32.2 µM
GI50 (PC-3 prostate): 2.65 µM
TGI (PC-3 prostate): 13.1 µM
GI50 (LOX IMVI melanoma): 3.54 µM
TGI (LOX IMVI melanoma): 12 µM
GI50 (UACC-257 melanoma): 4.33 µM
TGI (UACC-257 melanoma): 25.4 µM
GI50 (OVCAR-3 ovarian): 4.39 µM
TGI (OVCAR-3 ovarian): 20.3 µM
GI50 (SW-620 colon): 4.16 µM
TGI (SW-620 colon): > 100 µM
GI50 (SF-539 CNS): 3.15 µM
TGI (SF-539 CNS): 12.9 µM
GI50 (OVCAR-4 ovarian): 5.33 µM
TGI (OVCAR-4 ovarian): > 100 µM
GI50 (RPMI-8226 leukemia): 2.17 µM
TGI (RPMI-8226 leukemia): 4.77 µM
GI50 (786-0 renal): 3.97 µM
TGI (786-0 renal): 31 µM
GI50 (MALME-3M melanoma): 2.68 µM
TGI (MALME-3M melanoma): 21.2 µM
GI50 (NCI-H23 lung): 4.46 µM
TGI (NCI-H23 lung): 47.9 µM
GI50 (A498 renal): 4.01 µM
TGI (A498 renal): 26.4 µM
GI50 (UO-31 renal): 2.86 µM
TGI (UO-31 renal): 30.3 µM
GI50 (SNB-75 CNS): 3.9 µM
TGI (SNB-75 CNS): 96.3 µM
GI50 (NCI/ADR-RES ovarian): 4.32 µM
TGI (NCI/ADR-RES ovarian): > 100 µM
GI50 (M14 melanoma): 3.26 µM
TGI (M14 melanoma): 15.2 µM
GI50 (SF-268 CNS): 5.17 µM
TGI (SF-268 CNS): > 100 µM
GI50 (OVCAR-8 ovarian): 3.26 µM
TGI (OVCAR-8 ovarian): 67 µM
GI50 (SK-MEL-28 melanoma): 4.65 µM
TGI (SK-MEL-28 melanoma): 62.1 µM
GI50 (HL-60(TB) leukemia): 2.25 µM
TGI (HL-60(TB) leukemia): 5.25 µM
GI50 (MOLT-4 leukemia): 2.85 µM
TGI (MOLT-4 leukemia): 8.9 µM
GI50 (HS 578T breast): 8.59 µM
TGI (HS 578T breast): > 100 µM
GI50 (IGROV1 ovarian): 3.82 µM
TGI (IGROV1 ovarian): 60.2 µM
GI50 (CAKI-1 renal): 3.04 µM
TGI (CAKI-1 renal): > 100 µM
GI50 (MDA-MB-435): 3.26 µM
TGI (MDA-MB-435): 17.2 µM
GI50 (NCI-H460 lung): 3.17 µM
TGI (NCI-H460 lung): 10.2 µM
GI50 (HCT-116 colon): 3.55 µM
TGI (HCT-116 colon): 14.4 µM
GI50 (SF-295 CNS): 2.49 µM
TGI (SF-295 CNS): 7.77 µM
GI50 (DU-145 prostate): 7.01 µM
TGI (DU-145 prostate): > 100 µM
GI50 (NCI-H522 lung): 1.78 µM
TGI (NCI-H522 lung): 3.86 µM
GI50 (CCRF-CEM leukemia): 2.66 µM
TGI (CCRF-CEM leukemia): 8.67 µM
GI50 (BT-549 breast): 2.81 µM
TGI (BT-549 breast): 9.32 µM
GI50 (HT29 colon): 2.89 µM
TGI (HT29 colon): 8.61 µM
GI50 (COLO 205 colon): 2.49 µM
TGI (COLO 205 colon): 5.63 µM
GI50 (SNB-19 CNS): 5.28 µM
TGI (SNB-19 CNS): > 100 µM
GI50 (MDA-MB-231 breast): 2.41 µM
TGI (MDA-MB-231 breast): 8.74 µM
GI50 (SK-OV-3 ovarian): 6.43 µM
TGI (SK-OV-3 ovarian): > 100 µM
GI50 (T-47D breast): 4.33 µM
TGI (T-47D breast): 38.5 µM
GI50 (OVCAR-5 ovarian): 2.27 µM
TGI (OVCAR-5 ovarian): 7.68 µM
GI50 (RXF 393 renal): 2.19 µM
TGI (RXF 393 renal): 6.7 µM
GI50 (K-562 leukemia): 3.33 µM
TGI (K-562 leukemia): 46.7 µM
GI50 (KM12 colon): 3.6 µM
TGI (KM12 colon): 20.8 µM
GI50 (SR leukemia): 2.15 µM
TGI (SR leukemia): 5.58 µM
GI50 (HCC-2998 colon): 3.43 µM
TGI (HCC-2998 colon): 10.6 µM
GI50 (UACC-62 melanoma): 3.56 µM
TGI (UACC-62 melanoma): 15 µM
